Assay results from article PMC5291759 (Bioorganic & medicinal chemistry, 2016).
“Also recorded” adds a separate entry of the source. Where two headings read alike, the source gives them in different places.

Tests used:
Lmna^H222P/H222P mice [1] = details: cited from earlier work
HT-29 cells = assay: Anti-proliferative activity on HT-29 cells; format: cell-based; details: HT-29 anti-proliferative IC50
[2] = system: ERK1/2 phosphorylation in HEK-293 cells; assay: Phosphorylated ERK1/2 immunoblot in cultured HEK-293 cells; format: cell-based; details: 1 µM to 0.001 µM, 24 h
ERK1/2 phosphorylation = assay: Phosphorylated ERK1/2 relative to total ERK1/2 in tissues of treated mice; format: in vivo, Lmna^H222P/H222P mice; details: six weeks
Lmna^H222P/H222P mice [3] = assay: Quantitative real-time RT-PCR of Nppa and Myl7 mRNA in hearts; format: in vivo
Lmna^H222P/H222P mice [4] = assay: Cardiac fibrosis score; format: in vivo
Lmna^H222P/H222P mice [5] = assay: Serum creatine phosphokinase activity; format: in vivo
Lmna^H222P/H222P mice [6] = assay: Forelimb grip fatigue index; format: in vivo; details: 6 mg/kg/day
Lmna^H222P/H222P mice [7] = assay: Histology of quadriceps muscle; format: in vivo; details: placebo 3 of 6
Lmna^H222P/H222P mice [8] = format: in vivo; details: for Amylase (serum): 6 weeks, mean ± standard error, n = 10
Lmna^H222P/H222P mice [9] = format: in vivo; details: 6 weeks

Cn1cnc2c(F)c(Nc3ccc(Br)cc3Cl)c(C(=O)NOCCO)cc21 [selumetinib]
effect on left ventricular and skeletal muscle function and survival (Lmna^H222P/H222P mice [1]): beneficial effect on left ventricular and skeletal muscle function and prolongs survivial

COc1cccc(-c2cc(=O)c3ccccc3o2)c1N [PD98059]
effect on left ventricular and skeletal muscle function and survival (Lmna^H222P/H222P mice [1]): beneficial effect on left ventricular and skeletal muscle function and prolongs survivial

O=S1(=O)Nc2c(cc(F)c(F)c2Nc2ccc(I)cc2F)OCC(O)C(O)CC12CC2 (stereo not drawn) [compound 8]
potency of fast moving isomer compared to the slow moving one (HT-29 cells): approximately 25 fold
ERK1/2 phosphorylation [2]: essentially abolished ERK1/2 phosphorylation
phosphorylated ERK1/2 relative to total ERK1/2 in heart (ERK1/2 phosphorylation; 3 mg/kg/day oral gavage): significant decreases
phosphorylated ERK1/2 relative to total ERK1/2 in liver (ERK1/2 phosphorylation; 3 mg/kg/day oral gavage): significant decreases
phosphorylated ERK1/2 relative to total ERK1/2 in quadriceps muscle (ERK1/2 phosphorylation; 3 mg/kg/day oral gavage): only the higher dose produced a significant decrease
phosphorylated ERK1/2 relative to total ERK1/2 in heart (ERK1/2 phosphorylation; 6 mg/kg/day oral gavage): significant decreases
phosphorylated ERK1/2 relative to total ERK1/2 in liver (ERK1/2 phosphorylation; 6 mg/kg/day oral gavage): significant decreases
phosphorylated ERK1/2 relative to total ERK1/2 in quadriceps muscle (ERK1/2 phosphorylation; 6 mg/kg/day oral gavage): significant decrease
cardiac Nppa mRNA compared to placebo (Lmna^H222P/H222P mice [3]; 3 mg/kg/day): significantly reduced
cardiac Myl7 mRNA compared to placebo (Lmna^H222P/H222P mice [3]; 6 mg/kg/day): significantly decreased
cardiac Nppa mRNA compared to placebo (Lmna^H222P/H222P mice [3]; 6 mg/kg/day): significantly reduced
cardiac fibrosis score (grade 0-4) compared to placebo (Lmna^H222P/H222P mice [4]; 3 mg/kg/day): statistically significant decreases in fibrosis
cardiac fibrosis score (grade 0-4) compared to placebo (Lmna^H222P/H222P mice [4]; 6 mg/kg/day): statistically significant decreases in fibrosis
serum creatine phosphokinase activity compared to placebo (Lmna^H222P/H222P mice [5]; 3 mg/kg/day): but not 3 mg/kg/day of 8 significantly reduced
serum creatine phosphokinase activity compared to placebo (Lmna^H222P/H222P mice [5]; 6 mg/kg/day): significantly reduced
forelimb grip fatigue index compared to placebo (Lmna^H222P/H222P mice [6]): significantly reduced
quadriceps samples with internally nucleated fibers (Lmna^H222P/H222P mice [7]; 3 mg/kg/day): 1 of 5
quadriceps samples with internally nucleated fibers (Lmna^H222P/H222P mice [7]; 6 mg/kg/day): 0 of 5
Amylase (serum) (Lmna^H222P/H222P mice [8]; 3 mg/kg/day): 1,372 ± 282.9 U/L
Amylase (serum) (Lmna^H222P/H222P mice [8]; 6 mg/kg/day): 1,086 ± 40.18 U/L
liver, kidney or pancreatic toxicity by serum chemistry (Lmna^H222P/H222P mice [8]; 6 weeks of treatment at a dose up to 6 mg/kg/day): did not produce significant liver, kidney or pancreatic toxicity
Kidney histology, individual sample (Lmna^H222P/H222P mice [9]; 3 mg/kg/day): Normal
Liver histology, individual sample (Lmna^H222P/H222P mice [9]; 3 mg/kg/day): Normal; also recorded: Slightly greater vacuolation in some zones; similar to 7606 but milder; could be preparation artifact
Spleen histology, individual sample (Lmna^H222P/H222P mice [9]; 3 mg/kg/day): Mildly increased number of hemosiderin-laden macrophages suggestive of old hemorrhage Somewhere; also recorded: Normal (hemosiderin-laden macrophages present but at approximately normal levels)
Kidney histology, individual sample (Lmna^H222P/H222P mice [9]; 6 mg/kg/day): Some lymphocytic inflammation around the renal pelvis (around the ureter) and occasional medium-sized arteries; more inflammation than 7623 and 7622; also recorded: Mostly normal but some mild lymphocytic inflammation around small arteries with occasional hemosiderin-laden macrophages
Liver histology, individual sample (Lmna^H222P/H222P mice [9]; 6 mg/kg/day): Occasional hemosiderin laden macrophages. Some portal triads have mild lymphocytic inflammation; significance uncertain; also recorded: Normal; also recorded: Some intracellular vacuolation in some zones; similar to 7612; could be preparation artifact
Spleen histology, individual sample (Lmna^H222P/H222P mice [9]; 6 mg/kg/day): Area of necrosis consistent with splenic infarct; moderately increased number of hemosiderin-laden macrophages suggestive of hemorrhage old somewhere; also recorded: Normal
liver, kidney or spleen histopathology, overall (Lmna^H222P/H222P mice [9]; 3 or 6 mg/kg/day): no consistent or specific abnormalities in liver, kidney or spleen histopathology
